Measurements from PMC8445441, “Elucidating the mechanism by which synthetic helper peptides sensitize Pseudomonas aeruginosa to multiple antibiotics” (PLoS Pathogens, 2021).
Where two headings read alike, the source gives them in different places. Blank lines part the entries; values can stand above or below the molecule they belong to.

Experiments:
[1] = test system: P. aeruginosa HM-214; settings: strain HM-214; antibiotic + D-11 (MICb/MICbc 128/4)
Procedure, shortened: (§1)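 MICs were determined by CLSI broth microdilution in MHB, in triplicate: two-fold drug dilutions were mixed 1:1 with bacterial suspension of ~1 × 10^6 CFU/mL and incubated 18 h at 37 °C. The MIC was the lowest concentration with no visible growth.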

[2] = test system: P. aeruginosa AUMC-Pa-1; settings: strain AUMC-Pa-1; antibiotic + D-11 (MICb/MICbc 128/4)
Procedure, shortened: as §1

[3] = test system: P. aeruginosa AUMC-Pa-2; settings: strain AUMC-Pa-2; antibiotic + D-11 (MICb/MICbc 64/4)
Procedure, shortened: as §1

[4] = test system: P. aeruginosa NR-31041; assay: microbe, parasite or virus in culture; design: MICa: MIC of the antibiotic / MICac: MIC of the antibiotic in the combination: unit not given beside the values; settings: for MIC: Pseudomonas aeruginosa, NR31041, 18 h, read-out: MICa: MIC of the antibiotic; for FICI / MICac: MIC of the antibiotic in the combination: strain NR-31041; for FICI: antibiotic + D-11 (MICb/MICbc 64/4); for MICac: MIC of the antibiotic in the combination: with D-11 at MICbc 4, unit not given
Procedure, shortened: as §1

[5] = test system: P. aeruginosa PAK; assay: microbe, parasite or virus in culture; design: MICa: MIC of the antibiotic / MICac: MIC of the antibiotic in the combination: unit not given beside the values; settings: for MIC: Pseudomonas aeruginosa, 18 h, read-out: MICa: MIC of the antibiotic; for FICI / MICac: MIC of the antibiotic in the combination: strain PAK; for FICI: antibiotic + D-11 (MICb/MICbc 64/4); for MICac: MIC of the antibiotic in the combination: with D-11 at MICbc 4, unit not given
Procedure, shortened: as §1

[6] = test system: P. aeruginosa PA14; assay: microbe, parasite or virus in culture; design: MICa: MIC of the antibiotic / MICac: MIC of the antibiotic in the combination: unit not given beside the values; settings: for FICI: antibiotic + D-11 (MICb/MICbc 128/4); for MICac: MIC of the antibiotic in the combination: with D-11 at MICbc 4
Procedure, shortened: as §1

[7] = test system: P. aeruginosa NR-31040; assay: microbe, parasite or virus in culture; design: MICa: MIC of the antibiotic / MICac: MIC of the antibiotic in the combination: unit not given beside the values; settings: for MIC: Pseudomonas aeruginosa, NR31040, 18 h, read-out: MICa: MIC of the antibiotic; for FICI / MICac: MIC of the antibiotic in the combination: strain NR-31040; for FICI: antibiotic + D-11 (MICb/MICbc 128/4); for MICac: MIC of the antibiotic in the combination: with D-11 at MICbc 4, unit not given
Procedure, shortened: as §1

[8] = test system: P. aeruginosa ATCC27853; assay: microbe, parasite or virus in culture; design: MICa: MIC of the antibiotic / MICac: MIC of the antibiotic in the combination: unit not given beside the values; settings: for FICI: antibiotic + D-11 (MICb/MICbc 32/4); for MICac: MIC of the antibiotic in the combination: with D-11 at MICbc 4
Procedure, shortened: as §1

[9] = test system: clinical P. aeruginosa isolates; assay: microbe, parasite or virus in culture; settings: Pseudomonas aeruginosa, 18 h, antibiotic alone
Procedure, shortened: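 Broth microdilution per CLSI in MHB, two-fold drug dilutions mixed with an equal volume of bacteria at about 1 × 10^6 CFU/mL. After 18 h at 37 °C, MIC taken as the lowest concentration with no visible growth; run in triplicate.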

[10] = test system: P. aeruginosa AUMC-Pa-3; assay: microbe, parasite or virus in culture; settings: for MIC: Pseudomonas aeruginosa, AUMCPA3, 18 h, read-out: MICa: MIC of the antibiotic; for FICI / MICac: MIC of the antibiotic in the combination: strain AUMC-Pa-3; for FICI: antibiotic + D-11 (MICb/MICbc 128/4); for MICac: MIC of the antibiotic in the combination: with D-11 at MICbc 4, unit not given
Procedure, shortened: as §1

[11] = test system: P. aeruginosa AUMC-Pa-6; assay: microbe, parasite or virus in culture; settings: for MIC: Pseudomonas aeruginosa, AUMCPA6, 18 h, read-out: MICa: MIC of the antibiotic; for FICI / MICac: MIC of the antibiotic in the combination: strain AUMC-Pa-6; for FICI: antibiotic + D-11 (MICb/MICbc 64/4); for MICac: MIC of the antibiotic in the combination: with D-11 at MICbc 4, unit not given
Procedure, shortened: as §1

[12] = test system: P. aeruginosa AUMC-Pa-5; assay: microbe, parasite or virus in culture; settings: for MIC: Pseudomonas aeruginosa, AUMCPA5, 18 h, read-out: MICa: MIC of the antibiotic; for FICI / MICac: MIC of the antibiotic in the combination: strain AUMC-Pa-5; for FICI: antibiotic + D-11 (MICb/MICbc 64/4); for MICac: MIC of the antibiotic in the combination: with D-11 at MICbc 4, unit not given
Procedure, shortened: as §1

[13] = test system: P. aeruginosa PAO1; assay: microbe, parasite or virus in culture; settings: PAO1; for MIC: Pseudomonas aeruginosa, PAO1, 18 h, read-out: MICa: the MIC of antibiotics, S3 Table, antibiotic alone; for FICI / MICac: the MIC for the antibiotic in the combination: S3 Table
Procedure, shortened: as §1

[14] = test system: P. aeruginosa AUMC-Pa-4; assay: microbe, parasite or virus in culture; settings: for MIC: Pseudomonas aeruginosa, AUMCPA4, 18 h, read-out: MICa: MIC of the antibiotic; for FICI / MICac: MIC of the antibiotic in the combination: strain AUMC-Pa-4; for FICI: antibiotic + D-11 (MICb/MICbc 128/4); for MICac: MIC of the antibiotic in the combination: with D-11 at MICbc 4, unit not given
Procedure, shortened: as §1

[15] = strain ATCC27853, unit not given
[16] = read-out: Antibiotic sensibility (MIC) of clinical P. aeruginosa isolate AUMC-Pa-1, strain AUMC-Pa-1
[17] = read-out: Antibiotic sensibility (MIC) of clinical P. aeruginosa isolate AUMC-Pa-2, strain AUMC-Pa-2
[18] = read-out: Antibiotic sensibility (MIC) of clinical P. aeruginosa isolate AUMC-Pa-3, strain AUMC-Pa-3
[19] = read-out: Antibiotic sensibility (MIC) of clinical P. aeruginosa isolate AUMC-Pa-4, strain AUMC-Pa-4
[20] = read-out: Antibiotic sensibility (MIC) of clinical P. aeruginosa isolate AUMC-Pa-5, strain AUMC-Pa-5
[21] = read-out: Antibiotic sensibility (MIC) of clinical P. aeruginosa isolate AUMC-Pa-6, strain AUMC-Pa-6
[22] = read-out: Antibiotic sensibility (MIC) of clinical P. aeruginosa isolate HM-214, strain HM-214
[23] = read-out: Antibiotic sensibility (MIC) of clinical P. aeruginosa isolate NR-31040, strain NR-31040
[24] = read-out: Antibiotic sensibility (MIC) of clinical P. aeruginosa isolate NR-31041, strain NR-31041

- MIC [4]: > 128 µM
- MICac: MIC of the antibiotic in the combination [4]: >128/128
- MIC [5]: > 128 µM
- MICac: MIC of the antibiotic in the combination [5]: 64
- MICa: MIC of the antibiotic ([6]; strain PA14, antibiotic alone, unit not given): 128
- MICac: MIC of the antibiotic in the combination ([6]; strain PA14, unit not given): 32
- MIC [7]: > 128 µM
- MICac: MIC of the antibiotic in the combination [7]: >128/128
- MICa: MIC of the antibiotic ([8]; strain ATCC27853, antibiotic alone, unit not given): 128
- MICac: MIC of the antibiotic in the combination [8, 15]: 8
- MIC [9, 16]: > 128 µM
- MIC [9, 17]: 128 µM
- MIC [9, 18]: > 128 µM
- MIC [9, 19]: > 128 µM
- MIC [9, 20]: > 128 µM
- MIC [9, 21]: > 128 µM
- MIC [9, 22]: > 128 µM
- MIC [9, 23]: > 128 µM
- MIC [9, 24]: > 128 µM
- MIC [10]: > 128 µM
- MICac: MIC of the antibiotic in the combination [10]: 32
- MIC [11]: > 128 µM
- MICac: MIC of the antibiotic in the combination [11]: >128/>128
- MIC [12]: > 128 µM
- MICac: MIC of the antibiotic in the combination [12]: >128/128
- MIC [13]: > 128 µM
- MIC [14]: > 128 µM
- MICac: MIC of the antibiotic in the combination [14]: >128/>128
SMILES: C[C@@H]1O[C@@H]1P(=O)(O)O [Fosfomycin]
- FICI [1]: 0.281
- FICI [2]: 0.281
- FICI [3]: 0.188
- FICI [4]: 0.563
- FICI [5]: 0.313
- FICI ([6]; strain PA14): 0.281
- FICI [7]: 0.531
- FICI ([8]; strain ATCC27853): 0.188
- FICI [10]: 0.156
- FICI [11]: 1.063
- FICI [12]: 0.563
- FICI ([13]; antibiotic + 2 μM D-11): 0.188
- FICI ([13]; antibiotic + 4 μM D-11): 0.188
- FICI [14]: 1.031

- MIC [4]: 1 µM
- MICac: MIC of the antibiotic in the combination [4]: 0.25
- MIC [5]: 0.5 µM
- MICac: MIC of the antibiotic in the combination [5]: 0.25
- MIC ([6]; Pseudomonas aeruginosa, PA14, 18 h, read-out: MICa: MIC of the antibiotic): 0.5 µM
- MICac: MIC of the antibiotic in the combination ([6]; strain PA14, unit not given): 0.25
- MIC [7]: 1 µM
- MICac: MIC of the antibiotic in the combination [7]: 0.25
- MIC ([8]; Pseudomonas aeruginosa, ATCC27853, 18 h, read-out: MICa: MIC of the antibiotic): 1 µM
- MICac: MIC of the antibiotic in the combination [8, 15]: 0.125
- MIC [9, 16]: 8 µM
- MIC [9, 17]: 0.5 µM
- MIC [9, 18]: 0.5 µM
- MIC [9, 19]: 0.5 µM
- MIC [9, 20]: 0.5 µM
- MIC [9, 21]: 0.25 µM
- MIC [9, 22]: 1 µM
- MIC [9, 23]: 1 µM
- MIC [9, 24]: 1 µM
- MIC [10]: 0.5 µM
- MICac: MIC of the antibiotic in the combination [10]: 0.125
- MIC [11]: 0.25 µM
- MICac: MIC of the antibiotic in the combination [11]: 0.25/0.25
- MIC [12]: 0.5 µM
- MICac: MIC of the antibiotic in the combination [12]: 1
- MIC [13]: 1 µM
- MICac: the MIC for the antibiotic in the combination ([13]; with 2 μM D-11): 0.0625 µM
- MICac: the MIC for the antibiotic in the combination ([13]; with 4 μM D-11): 0.03125 µM
- MIC [14]: 0.5 µM
- MICac: MIC of the antibiotic in the combination [14]: 0.25
SMILES: C[C@H]1COc2c(N3CCN(C)CC3)c(F)cc3c(=O)c(C(=O)O)cn1c23 [Levofloxacin]
- FICI [1]: 0.531
- FICI [2]: 0.156
- FICI [3]: 0.563
- FICI [4]: 0.313
- FICI [5]: 0.563
- FICI ([6]; strain PA14): 0.531
- FICI [7]: 0.281
- FICI ([8]; strain ATCC27853): 0.250
- FICI [10]: 0.281
- FICI [11]: 1.063
- FICI [12]: 2.063
- FICI ([13]; antibiotic + 2 μM D-11): 0.125
- FICI ([13]; antibiotic + 4 μM D-11): 0.156
- FICI [14]: 0.531
